Columns and labels:
FBXL10 = FBXL10 (Homo sapiens (Human), UniProt Q8NHM5); assay: FBXL10 in vitro enzyme inhibition assay (AlphaScreen); type: biochemical; conditions: 0.3 nM FBXL10, H3K36me2-biotin peptide
Excerpt: (§1) This assay determines the ability of a test compound to inhibit FBXL11, FBXL10, and PHF8 demethylase activity. Baculovirus expressed FBXL11 (GenBank Accession #NM_012308, AA1-1162) was purchased from BPS Bioscience (Cat#50102). Baculovirus expressed FBXL10 (GenBank Accession #NM_032590, AA 1-650) was purchased from BPS Bioscience (Cat #50120). Baculovirus expressed PHF8 (GenBank Accession NP_055922.1) was purchased from Active Motif (Cat#31435).
The ability of test compounds to inhibit the activity of FBXL10 was determined in 384-well plate format under the following reaction conditions: 0.3 nM FBXL10, 30 nM H3K36me2-biotin labeled peptide (Anaspec cat #64442), 0.2 μM alpha-ketoglutaric acid in assay buffer of 50 mM HEPES, pH7.3, 0.005% Brij35, 0.5 mM TCEP, 0.2 mg/ml BSA, 50 μM sodium L-ascorbate, 5 μM ammonium iron(II) sulfate. Reaction product is determined quantitatively by AlphaScreen detection after the addition of detection reagents anti-H3K36me1 antibody, AlphaScreen® Streptavidin-coated Donor beads, and AlphaScreen® Protein A Acceptor beads in 50 mM HEPES, pH7.3, 10 mM NaCl, 0.005% Brij35, 5 mM EDTA, 2 mg/ml BSA to final 10 μg/ml beads.
The assay reaction was initiated by the following: 3 μl of the mixture of 90 nM H3K36me2-biotin labeled peptide and 0.6 μM alpha-ketoglutaric acid with 3 μl of 11-point serial diluted inhibitor in 3% DMSO are added to each well of 384 well Proxiplate (Perkin Elmer), followed by the addition of 3 μl of 0.9 nM FBXL10 to initiate the reaction. The reaction mixture is incubated at room temperature for 1 hour, and terminated by the addition of 3 μl of appropriate dilution of anti H3K36me1 antibody in 50 mM HEPES, pH7.3, 10 mM NaCl, 0.005% Brij35, 5 mM EDTA, 2 mg/ml BSA. Plates will then incubated at room temperature for 40 minutes, followed by addition of 3 ul of 50 μg/ml AlphaScreen® Streptavidin-coated Donor beads and AlphaScreen® Protein A Acceptor beads in 50 mM HEPES, pH7.3, 10 mM NaCl, 0.005% Brij35, 5 mM EDTA, 2 mg/ml BSA. Plates will then be read by EnVision Multilabel Reader in AlphaScreen mode after minimum 2 hour incubation at room temperature. The AlphaScreen signal for each well is used to determine inhibition constant (IC50).
(§2) The ability of the compounds disclosed herein to inhibit demethylase activity was quantified and the respective IC50 value was determined.

PHF8 = PHF8 (Homo sapiens (Human), UniProt Q9UPP1); assay: PHF8 in vitro enzyme inhibition assay (TR-FRET); type: biochemical; conditions: 3 nM PHF8, H3K9me1-biotin peptide
Excerpt: as §1
The ability of test compounds to inhibit the activity of PHF8 was determined in 384-well plate format under the following reaction conditions: 3 nM PHF8, 200 nM H3K9me1-biotin labeled peptide (Anaspec cat #64358), 0.5 μM alpha-ketoglutaric acid in assay buffer of 50 mM HEPES, pH7.3, 0.005% Brij35, 0.5 mM TCEP, 0.2 mg/ml BSA, 50 μM sodium L-ascorbate, and 5 μM ammonium iron(II) sulfate. Reaction product was determined quantitatively by TR-FRET after the addition of detection reagent Phycolink Streptavidin-allophycocyanin (Prozyme) and Europium-anti-unmodified-histone H3 lysine 9/lysine27 (H3K9/K27) antibody (PerkinElmer) in the presence of 5 mM EDTA in LANCE detection buffer (PerkinElmer) at a final concentration of 25 nM and 0.5 nM, respectively.
The assay reaction was initiated by the following: 2 μl of the mixture of 600 nM H3K9me1-biotin labeled peptide and 1.5 μM alpha-ketoglutaric acid with 2 μl of 11-point serial diluted inhibitor in 3% DMSO were added to each well of the plate, followed by the addition of 2 μl of 9 nM PHF8 to initiate the reaction. The reaction mixture was incubated at room temperature for 15 minutes, and terminated by the addition of 6 μl of 5 mM EDTA in LANCE detection buffer containing 50 nM Phycolink Streptavidin-allophycocyanin and 1 nM Europium-anti-unmodified H3K9/K27 antibody. Plates were read by EnVision Multilabel Reader in TR-FRET mode (excitation at 320 nm, emission at 615 nm and 665 nm) after 1 hour incubation at room temperature. A ratio was calculated (665/615) for each well and fitted to determine inhibition constant (IC50).
as §2

Chain of PHF8 (Q9UPP1 37-1060): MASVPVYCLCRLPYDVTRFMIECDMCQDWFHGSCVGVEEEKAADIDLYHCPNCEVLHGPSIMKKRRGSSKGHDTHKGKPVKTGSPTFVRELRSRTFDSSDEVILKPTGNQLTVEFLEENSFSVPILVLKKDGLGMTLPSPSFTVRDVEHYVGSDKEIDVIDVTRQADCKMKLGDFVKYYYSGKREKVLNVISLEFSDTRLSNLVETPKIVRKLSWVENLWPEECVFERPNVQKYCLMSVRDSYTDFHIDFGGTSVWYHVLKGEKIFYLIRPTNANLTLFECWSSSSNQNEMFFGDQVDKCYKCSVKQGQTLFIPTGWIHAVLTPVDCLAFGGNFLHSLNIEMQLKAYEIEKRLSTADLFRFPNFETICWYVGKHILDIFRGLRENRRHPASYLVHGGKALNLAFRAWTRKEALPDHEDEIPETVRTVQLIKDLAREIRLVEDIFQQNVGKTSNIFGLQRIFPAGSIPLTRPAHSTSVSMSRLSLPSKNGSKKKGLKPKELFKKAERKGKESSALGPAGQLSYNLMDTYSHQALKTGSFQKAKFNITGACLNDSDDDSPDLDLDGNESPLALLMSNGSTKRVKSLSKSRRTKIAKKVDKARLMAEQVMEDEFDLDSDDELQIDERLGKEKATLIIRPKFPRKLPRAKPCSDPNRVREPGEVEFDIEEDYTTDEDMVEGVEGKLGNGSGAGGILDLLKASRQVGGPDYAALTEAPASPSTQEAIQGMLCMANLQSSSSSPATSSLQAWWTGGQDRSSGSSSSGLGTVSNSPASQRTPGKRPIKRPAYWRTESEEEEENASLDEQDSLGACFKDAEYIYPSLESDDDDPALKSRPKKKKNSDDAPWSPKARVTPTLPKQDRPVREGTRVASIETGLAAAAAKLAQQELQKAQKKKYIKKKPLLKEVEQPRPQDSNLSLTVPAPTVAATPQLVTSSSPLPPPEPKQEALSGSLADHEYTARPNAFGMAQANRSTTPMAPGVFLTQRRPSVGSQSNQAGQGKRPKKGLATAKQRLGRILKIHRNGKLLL
Chain of FBXL10 (Q8NHM5 1-650): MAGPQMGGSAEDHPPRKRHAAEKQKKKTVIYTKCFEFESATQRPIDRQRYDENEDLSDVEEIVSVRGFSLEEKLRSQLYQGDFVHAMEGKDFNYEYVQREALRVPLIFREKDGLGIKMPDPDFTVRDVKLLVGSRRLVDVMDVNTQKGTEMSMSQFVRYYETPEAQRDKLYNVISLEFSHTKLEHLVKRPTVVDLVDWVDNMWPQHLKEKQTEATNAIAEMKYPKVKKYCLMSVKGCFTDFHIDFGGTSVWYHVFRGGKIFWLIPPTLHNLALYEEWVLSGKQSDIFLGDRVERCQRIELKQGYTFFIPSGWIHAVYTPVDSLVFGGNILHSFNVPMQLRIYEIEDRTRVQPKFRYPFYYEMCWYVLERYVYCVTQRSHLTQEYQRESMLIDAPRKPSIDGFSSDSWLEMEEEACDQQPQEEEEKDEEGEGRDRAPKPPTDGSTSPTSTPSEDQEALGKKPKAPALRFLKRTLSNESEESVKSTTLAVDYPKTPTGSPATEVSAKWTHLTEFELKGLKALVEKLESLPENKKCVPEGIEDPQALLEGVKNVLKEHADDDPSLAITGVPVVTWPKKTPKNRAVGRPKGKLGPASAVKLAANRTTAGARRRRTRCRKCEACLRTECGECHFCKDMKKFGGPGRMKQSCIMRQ

| Structure (SMILES) | IC50 (FBXL10) [nM] | IC50 (PHF8) [nM] |
| --- | --- | --- |
| Fc1[nH]nnc1-c1ccnc(-c2cn(CCc3cccc4ccccc34)cn2)c1 [Example 35, 4-(5-fluoro-1H-triazol-4-yl)-2-[1-(2-naphthalen-1-ylethyl)imidazol-4-yl]pyridine] | ≤ 100 | 100 to 1000 |
| N#Cc1[nH]nnc1-c1ccnc(-c2cn(CC3CCCc4ccccc43)cn2)c1 (stereo not shown) [Example 15, 4-[2-[1-(1,2,3,4-tetrahydronaphthalen-1-ylmethyl)imidazol-4-yl]pyridin-4-yl]-1H-triazole-5-carbonitrile] | ≤ 100 | 100 to 1000 |
| COc1cccc(Cn2cnc(-c3cc(-c4c[nH]nn4)ccn3)c2)c1F [Example 30, 2-[1-[(2-fluoro-3-methoxyphenyl)methyl]imidazol-4-yl]-4-(1H-triazol-4-yl)pyridine] | ≤ 100 | 100 to 1000 |
| FC(F)(F)c1[nH]nnc1-c1ccnc(-c2cn(CCc3cccc4ccccc34)cn2)c1 [Example 37, 2-[1-(2-naphthalen-1-ylethyl)imidazol-4-yl]-4-[5-(trifluoromethyl)-1H-triazol-4-yl]pyridine] | ≤ 100 | > 10000 |
| N#Cc1[nH]nnc1-c1ccnc(-c2cn(Cc3ccccc3Cl)cn2)c1 [Example 13, 4-[2-[1-[(2-chlorophenyl)methyl]imidazol-4-yl]pyridin-4-yl]-1H-triazole-5-carbonitrile] | ≤ 100 | 1000 to 10000 |
| c1ccc(COc2ccccc2CCn2cnc(-c3cc(-c4c[nH]nn4)ccn3)c2)cc1 [Example 17, 2-[1-[2-(2-phenylmethoxyphenyl)ethyl]imidazol-4-yl]-4-(1H-triazol-4-yl)pyridine] | ≤ 100 | 1000 to 10000 |
| c1ccc(-c2ccccc2CCn2cnc(-c3cc(-c4c[nH]nn4)ccn3)c2)cc1 [Example 27, 2-[1-[2-(2-phenylphenyl)ethyl]imidazol-4-yl]-4-(1H-triazol-4-yl)pyridine] |  | 1000 to 10000 |
| c1ccc(OCC2CC2)c(CCn2cnc(-c3cc(-c4c[nH]nn4)ccn3)c2)c1 [Example 11, 2-[1-[2-[2-(cyclopropylmethoxy)phenyl]ethyl]imidazol-4-yl]-4-(1H-triazol-4-yl)pyridine] | ≤ 100 | 100 to 1000 |
| c1ccc2c(c1)OCCC2Cn1cnc(-c2cc(-c3c[nH]nn3)ccn2)c1 (stereo not shown) [Example 12, 2-[1-(3,4-dihydro-2H-chromen-4-ylmethyl)imidazol-4-yl]-4-(1H-triazol-4-yl)pyridine] | ≤ 100 | ≤ 100 |
| Cn1cnc(-c2cc(-c3c[nH]nn3)ccn2)c1-c1ccc(F)cc1 [Example 3, 2-[5-(4-fluorophenyl)-1-methylimidazol-4-yl]-4-(1H-triazol-4-yl)pyridine] | ≤ 100 | 100 to 1000 |
| Fc1c(Cl)cccc1Cn1cnc(-c2cc(-c3c[nH]nn3)ccn2)c1 [Example 29, 2-[1-[(3-chloro-2-fluorophenyl)methyl]imidazol-4-yl]-4-(1H-triazol-4-yl)pyridine] | ≤ 100 | ≤ 100 |
| FC(F)(F)COc1ccccc1CCn1cnc(-c2cc(-c3c[nH]nn3)ccn2)c1 [Example 10, 4-(1H-triazol-4-yl)-2-[1-[2-[2-(2,2,2-trifluoroethoxy)phenyl]ethyl]imidazol-4-yl]pyridine] | ≤ 100 | 100 to 1000 |
| N#Cc1[nH]nnc1-c1ccnc(-c2cn(CCc3cccc4ccccc34)cn2)c1 [Example 16, 4-[2-[1-(2-naphthalen-1-ylethyl)imidazol-4-yl]pyridin-4-yl]-1H-triazole-5-carbonitrile] | ≤ 100 | 100 to 1000 |
| Cn1cnc(-c2cc(-c3nn[nH]c3C#N)ccn2)c1-c1ccc(F)cc1OCC1CC1 [Example 39, 4-[2-[5-[2-(cyclopropylmethoxy)-4-fluorophenyl]-1-methylimidazol-4-yl]pyridin-4-yl]-1H-triazole-5-carbonitrile] | ≤ 100 | 1000 to 10000 |
| FC(F)(F)c1ccccc1CCn1cnc(-c2cc(-c3c[nH]nn3)ccn2)c1 [Example 31, 4-(1H-triazol-4-yl)-2-[1-[2-[2-(trifluoromethyl)phenyl]ethyl]imidazol-4-yl]pyridine] | ≤ 100 | 100 to 1000 |
| CC(C)(Cn1cnc(-c2cc(-c3c[nH]nn3)ccn2)c1)c1ccccc1Cl [Example 32, 2-[1-[2-(2-chlorophenyl)-2-methylpropyl]imidazol-4-yl]-4-(1H-triazol-4-yl)pyridine] | ≤ 100 | 100 to 1000 |
| Fc1[nH]nnc1-c1ccnc(-c2cn(Cc3cccc(Cl)c3Cl)cn2)c1 [Example 20, 2-[1-[(2,3-dichlorophenyl)methyl]imidazol-4-yl]-4-(5-fluoro-1H-triazol-4-yl)pyridine] | ≤ 100 | 100 to 1000 |
| Clc1[nH]nnc1-c1ccnc(-c2cn(CCc3cccc4ccccc34)cn2)c1 [Example 36, 4-(5-chloro-1H-triazol-4-yl)-2-[1-(2-naphthalen-1-ylethyl)imidazol-4-yl]pyridine] | ≤ 100 | 1000 to 10000 |
| Cn1cnc(-c2cc(-c3nn[nH]c3Cl)ccn2)c1-c1ccc(F)cc1OCC1CC1 [Example 40, 4-(5-chloro-1H-triazol-4-yl)-2-[5-[2-(cyclopropylmethoxy)-4-fluorophenyl]-1-methylimidazol-4-yl]pyridine] | ≤ 100 | > 10000 |
| Clc1cccc(Cn2cnc(-c3cc(-c4nn[nH]c4I)ccn3)c2)c1Cl [Example 19, 2-[1-[(2,3-dichlorophenyl)methyl]imidazol-4-yl]-4-(5-iodo-1H-triazol-4-yl)pyridine] | ≤ 100 | 100 to 1000 |
| Fc1c(Cn2cnc(-c3cc(-c4c[nH]nn4)ccn3)c2)cccc1OC(F)(F)F [Example 26, 2-[1-[[2-fluoro-3-(trifluoromethoxy)phenyl]methyl]imidazol-44-yl]-4-(1H-triazol-4-yl)pyridine] |  | 1000 to 10000 |
| Cn1cnc(-c2cc(-c3nn[nH]c3F)ccn2)c1-c1ccc(F)cc1OCC1CC1 [Example 41, 2-[5-[2-(cyclopropylmethoxy)-4-fluorophenyl]-1-methylimidazol-4-yl]-4-(5-fluoro-1H-triazol-4-yl)pyridine] | ≤ 100 | 1000 to 10000 |
| c1ccc(Oc2ccccc2CCn2cnc(-c3cc(-c4c[nH]nn4)ccn3)c2)cc1 [Example 18, 2-[1-[2-(2-phenoxyphenyl)ethyl]imidazol-4-yl]-4-(1H-triazol-4-yl)pyridine] | ≤ 100 | 1000 to 10000 |
| Cc1cccc(Cn2cnc(-c3cc(-c4c[nH]nn4)ccn3)c2)c1F [Example 28, 2-[1-[(2-fluoro-3-methylphenyl)methyl]imidazol-4-yl]-4-(1H-triazol-4-yl)pyridin] | ≤ 100 | 100 to 1000 |
| Ic1[nH]nnc1-c1ccnc(-c2cn(CCc3cccc4ccccc34)cn2)c1 [Example 38, 4-(5-iodo-1H-triazol-4-yl)-2-[1-(2-naphthalen-1-ylethyl)imidazol-4-yl]pyridine] | ≤ 100 | > 10000 |
| CC(Cc1ccccc1)n1cnc(-c2cc(-c3c[nH]nn3)ccn2)c1 (stereo not shown) [Example 33, 2-[1-(1-phenylpropan-2-yl)imidazol-4-yl]-4-(1H-triazol-4-yl)pyridine] |  | 1000 to 10000 |
